Source: patent publication US20160186209A1, “RECOMBINANT CELLS AND METHODS OF USING SUCH CELLS TO IDENTIFY CIRCADIAN RHYTHM MODULATORS” (University of Memphis Research Foundation, priority 2012, published 2016)

Experiments:
[1] = tested on: Differentiated MMH-D3 cells (ERK phosphorylation); assay: Insulin-induced ERK phosphorylation (Western blot), differentiated MMH-D3 cells; type: cell-based; conditions: 0.1 nM insulin for 5 minutes
Procedure: (§1) FIGS. 1A-1C are graphs showing that fibroblasts, adipocytes, and hepatocytes display bioluminescence rhythms. […] Reporter cells were generated via lentiviral infection of either Per2-dLuc or Bmal1-dLuc luciferase reporter, and infected cell populations were recorded in a LumiCycle. Baseline-subtracted bioluminescence data of both reporter lines are plotted together to show the expected, approximately anti-phasic reporter expression for each cell type. […] Baseline-subtracted bioluminescence data of selected clonal lines representing both reporter types are plotted together to show anti-phasic reporter expression for each cell type. High reproducibility is illustrated by showing data from 24 of the 96 wells for each reporter. […] Differentiated 3T3-L1 and MMH-D3 cells were treated with 0.1, 1, or 10 nM insulin for 5, 15, or 30 minutes, followed by cell lysis and Western blot analysis with ERK and pERK antibodies. […] Data are representative of two independent experiments.
(§2) To develop new models, a battery of luciferase-based reporters that can be introduced into cells via transient transfection or lentiviral transduction was engineered. To explore cell type specificity of clock gene function, new reporter cell lines comprising lentiviral luciferase reporter driven either by the Per2 or Bmal1 promoters were developed. […]

[2] = tested on: Differentiated 3T3-L1 cells (ERK phosphorylation); assay: Insulin-induced ERK phosphorylation (Western blot), differentiated 3T3-L1 cells; type: cell-based, mouse; conditions: 0.1 nM insulin for 5 minutes
Procedure: as §1, §2

## insulin
[1]
  ERK activation as reflected by its phosphorylation: sufficient to activate ERK
[2]
  ERK activation as reflected by its phosphorylation: sufficient to activate ERK
